# Measured values as given in PubChem BioAssay AID179 (DTP/NCI, 2004).
# Active and inactive are the calls of the source.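 The calls were made as follows: active = compounds giving half or more protection of infected cells from virus-caused growth loss, again on retest; inactive = the rest.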 Where a SMILES comes first, the peptide text is derived from it. [ ]: non-standard residue; d: D form. The star is where a group is joined. ξ: configuration not given here. ξD = NC(CC(=O)O)C(=O)O; Ac3c = NC1(C(=O)O)CC1; Boc = CC(C)(C)OC(=O)*; OBn = c1ccc(CO*)cc1
# Tested on: CEM cells HIV-1 protection, formazan growth assay
# Test: NCI AIDS Antiviral Assay
# Conditions: for IC50: measured here: growth of uninfected CEM cells
# In short: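 Steps: treat uninfected and HIV-1-infected human CEM cells at five drug levels; quantify growth by soluble formazan; retest any compound reaching 50% protection; classify actives from the retest.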
Compound,EC50 [µM],IC50 [µM],outcome
O=C(CC(=O)N1CCN(c2ccccn2)CC1)N1CCN(c2ccccn2)CC1,> 97.7,> 97.7,–
Nc1ncnc2c1N=C(c1ccccc1)CC(c1ccccc1)N2 (stereo unspecified),> 200,> 200,–
O=C(/C=C/c1cc(O)c(O)cc1O)OCCc1ccccc1,> 200,9.33,–
CN(C)NC(=S)Nc1ccccc1Br,> 200,> 200,–
CCCCOC(=O)N(CCCC)c1ccccc1,> 200,151,–
CCOc1ccc(Nc2nc(N)nc(N)c2N)cc1,> 200,66.1,–
CCCCNC1CCCCC[C@H]1O (stereo partly specified),> 1120,> 1120,–
Cc1ccc(/C(C#N)=C/c2cccc([N+](=O)[O-])c2)cc1,> 200,> 200,–
CCCCn1c2c(c3ccccc3c1=O)C(=O)c1ccccc1-2,> 69.2,33.9,–
COC(=O)C1=C(C(=O)OC)C(C(=O)OC)C(C(=O)OC)C(C(=O)OC)(C(=O)OC)C(C(=O)OC)=C1C(=O)OC (stereo unspecified),–,–,inactive
O=C(OCc1ccccc1)N(CCCCN(CCCNC(=O)C(F)(F)F)C(=O)OCc1ccccc1)CCCNC(=O)C(F)(F)F,–,–,inactive
COc1ccc(OC)c(NC2=NCCO2)c1,> 200,107,–
C[N+]1(C)C/C(=C\c2ccncc2)C(=O)/C(=C/c2ccncc2)C1,–,–,inactive
Cc1c([N+](=O)[O-])c(=O)oc2ccc3c(=O)ccoc3c12,> 50.1,8.71,–
C=CCNC(=O)CN(CC(=O)OC)C1CCCCC1N(CC(=O)OC)CC(=O)OC (stereo unspecified),> 200,> 200,–
Nc1nc(Cl)c(N)c(NCC2(CO)CCC2)n1,> 200,115,–
CCOC(=O)N/N=C(/N)c1cccc([N+](=O)[O-])c1,> 200,> 200,–
C=CCC1([C@H](C)[C@@H](OC(C)=O)c2cc(OC)c(OC)c(OC)c2)C[C@@H](OC)CCC1=O (stereo partly specified),> 115,6.03,–
CCOC(=O)/C(=C\c1ccc(Br)cc1)P(=O)(OCC)OCC,> 331,6.76,–
O=C(Cc1nc2ccccc2[nH]1)N/N=C1\SCC(=O)N1c1ccc(Cl)cc1,> 182,> 182,–
O=C1CCCC2=C1CC1=C(CCCC1=O)N2c1ccccc1C(=O)O,> 200,> 200,–
O=C(NCCCCCCCN1CCCCCCC1)C(C1CCCCC1)C1CCCCC1,> 200,10.7,–

Compound,EC50 [µM],IC50 [µM],outcome
CC(=O)NNc1nc(C)c(C(/C=C/c2cccc([N+](=O)[O-])c2)=N/NC(=S)NN)s1,> 72.4,> 72.4,–
C=CCOC(=O)/C(=C\c1ccc(OC)c(OC)c1)c1ccc(OC)c(OC)c1,> 200,> 200,–
CN(C)/C=N/NC(=O)C(O)(c1ccccc1)c1ccccc1,> 200,> 200,–
S=c1nc2sc3c(c2c(Nc2ccccc2)[nH]1)CCCC3,> 200,> 200,–
CCCCCC=C(c1cc(Cl)c(OC)c(C(=O)N(C)C)c1)c1cc(Cl)c(OC)c(C(=O)N(C)C)c1,> 36.3,21.4,–
Cn1c(C2CC(C)(C)c3c2c2ccccc2n3C)cc2ccccc21 (stereo unspecified),> 21.9,> 21.9,–
Cc1cccc2c1Sc1ccccc1C2NC(=O)CN(C)C (stereo unspecified),> 417,102,–
COc1cccc(C=O)c1[O-].COc1cccc(C=O)c1[O-].[Zn+2],> 676,21.9,–
O=[N+]([O-])c1ncnc2c1ncn2C1OC(CO)CC1F (stereo unspecified),> 89.1,28.2,–
Clc1nc(NC23CC4CC(CC(C4)C2)C3)nc(NC23CC4CC(CC(C4)C2)C3)n1,> 200,52.5,–
Cc1c2c(c(C)c3c1C(=O)c1cc4c(cc1C3=O)OCO4)OCO2,> 200,> 200,–
COC(=O)CCCc1ccc2c(c1)CCC2,> 200,> 200,–
C=C[C@@](C)(/C=C/c1ccc(O)cc1)CCC=C(C)C,> 200,25.1,–
CC(=O)NC(CC(C)C(C)=O)(C(=O)O)C(=O)O (stereo unspecified),> 200,> 200,–
COC(=O)C1=C(C)NC2=C(C(=O)c3ccccc32)C1c1cn(-c2ccccc2)nc1-c1ccccc1 (stereo unspecified),> 200,8.71,–
S=C(N/N=C(/c1ccccc1)c1ccccn1)N(Cc1ccccn1)Cc1ccccn1,> 200,0.0631,–
N#CC1(Cl)CC2CC1C1N=NN(c3ccccc3)C21 (stereo unspecified),> 200,> 200,–
O=C(O)CCSC(=O)Nc1cccc([N+](=O)[O-])c1,–,–,inactive
COC(=O)C1(NC(=O)C(CC(=O)OCc2ccccc2)NC(=O)OC(C)(C)C)CC1 (stereo unspecified) (Boc-[ξD](OBn)-[Ac3c]-OMe),> 200,> 200,–
Nc1ccccc1SC(CC(=O)c1ccccc1)c1ccc2c(c1)OCO2 (stereo unspecified),> 200,10.7,–
O=C(CC(O)(C(F)(F)F)C(F)(F)F)C(CCCl)C(O)(C(F)(F)F)C(F)(F)F (stereo unspecified),> 200,33.1,–
O=Nc1c(-c2ccccc2)nc2cc(-c3ccccc3)[nH]n12,> 18.2,> 18.2,–

Compound,EC50 [µM],IC50 [µM],outcome
CNC(=O)c1n[nH][nH]c1=O,> 200,> 200,–
C/C(=C\c1ccccc1)C(O)C(=O)c1nc2ccc(Cl)cc2[nH]c1=O (stereo unspecified),> 708,33.9,–
COC(=O)c1ccc(Nc2nc3nc[nH]c3c(=O)[nH]2)cc1,> 200,42.7,–
COc1ccc(/C(=N/O)c2ccccc2-c2nc3ccccc3c(=O)n2Nc2ccc([N+](=O)[O-])cc2[N+](=O)[O-])cc1C,> 200,43.7,–
O=c1[nH]nnc2c1sc1ncccc12,> 200,> 200,–
O=c1cc(CNC2CC3CCC2C3)[nH]c(=O)[nH]1 (stereo unspecified),–,–,inactive
Cc1cc(C)nc(NS(=O)(=O)c2ccc(NC(=O)c3ccccc3SC(=O)CCCC[n+]3ccccc3)cc2)n1,17,51.3,–
O=C(Nc1ccc(Cl)cc1Cl)/C(Cl)=C1/Sc2ccccc2NC1=O,> 6.76,> 6.76,–
O=S(=O)([O-])[O-].[Fe+2].[OH2+]c1c(Cl)cc(Cl)cc1/C=N/Nc1ccccn1,–,–,inactive
COc1cc(Cl)c2c3c(c(C(=O)c4ccccc4)oc13)CCC2,–,–,inactive
COc1ccc2c(c1)C(=O)C13CC(C(=O)O)C(OC(C)=O)(CCC21)C3 (stereo unspecified),> 89.1,> 89.1,–
CCOC(=O)c1nc(SC)sc1NC(=O)c1ccccc1[N+](=O)[O-],195,> 200,–
CC1(c2cccc(C3CCC4(C=CC3=O)OCCO4)c2)OCCO1 (stereo unspecified),> 200,1.91,–
O=[N+]([O-])c1ccc2c(c1)-c1ccccc1S2(=O)=O,–,–,inactive
CC1(C)C2CCC1(CS(=O)O)C(=O)C2.[Ag] (stereo unspecified),> 398,7.94,–
COc1ccc(COCC[C@H](C)OC2OC(CO[Si](C)(C)C(C)(C)C)C(O)C(O)C2O)cc1 (stereo partly specified),> 200,16.2,–
O=C1COc2cc3c(cc2N1)SCCC(=O)N3,> 39.8,> 39.8,–
NC1=NS(=O)(=O)N=C(N)C1=NNc1cccc(Cl)c1,> 832,138,–
CC1CN=C(c2ccc(NC(=O)c3ccc(C(=O)Nc4ccc(C5=NCC(C)CN5)cc4)cc3)cc2)NC1 (stereo unspecified),> 200,25.1,–
C=CCN(CC=C)CC(C(C)=O)C(c1ccccc1)c1c(O)c2ccccc2oc1=O (stereo unspecified),> 1.15,> 1.15,–
COC(=S)C12CC3CC(CC(C3)C1)C2,–,–,inactive
